Measured values taken from patent US6274615A, “Method for delaying the onset of alheimer's disease and for treatment or delaying the onset of other amyloidosis-related diseases/disorders” (South Alabama Medical Science Foundation, priority 1999, dated 2001).
Entries after “also recorded” stand apart in the source; their conditions may differ. Read-outs that look alike come from different tables or passages of the source.

Tests used:
Aβ1-42 [1] = target: T1, Aβ1-42 (Homo sapiens, UniProt P05067); assay: Circular dichroism spectroscopy of Aβ1-42 (secondary structure); details: for structural changes (secondary structure): Aβ1-42 250 μM + 100 μM compound, time 0 and 4 h; for amount of β-sheet structures: Aβ1-42 250 μM + melatonin 100 μM
T1 construct: aggregates to fibrils
T1 sequence (P05067 672-713): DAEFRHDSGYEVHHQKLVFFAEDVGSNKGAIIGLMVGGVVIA
Method: (§1) The corresponding percentages of the different secondary structure motifs are shown for Aβ1-40 at time 0 in (FIG. 1C) and 24 hours (FIG. 1D) and for Aβ1-42 at time 0 (FIG. 1G) and 4 hours (FIG. 1H). An average of 40 scans/independent experimental condition was obtained. An independent experiment yielded qualitatively similar data.
(§2) Peptides Aβ1-40 and Aβ1-42 were synthesized in the W. M. Keck Foundation (Yale University, Conn.), and their purity was evaluated by amino acid sequence and laser […] mass spectrometry as described (Soto et al., 1996).
(§3) Spectra in the far ultraviolet light (190-250 nm) were recorded at various time intervals with a Jasco-720 spectropolarimeter as described (Soto et al., 1996) using a cell path of 0.01 cm. […] 40 scans/experimental condition were obtained at 0.2 nm intervals over the wavelength range 190-250 nm. The data were analyzed by the Lincomb algorithm (Perczel et al., 1992) to obtain the percentages of the different secondary structure motifs.

Aβ1-40 [2] = target: T2, Aβ1-40 (Homo sapiens, UniProt P05067); assay: Electron microscopy of Aβ1-40 amyloid fibril formation; assay type: biochemical
T2 construct: aggregates to fibrils
T2 sequence (P05067 672-711): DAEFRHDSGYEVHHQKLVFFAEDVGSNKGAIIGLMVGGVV
Text: Bar is 200 nm. […] EM grids were extensively and carefully examined, and a negative result was only documented when fibrils were totally absent from the grids.

Aβ1-40 [3] = target: T2, Aβ1-40; assay: Circular dichroism spectroscopy of Aβ1-40 (secondary structure); details: for structural changes (secondary structure) / change of random conformation / change of β-sheet content: Aβ1-40 250 μM + 100 μM compound; for structural changes (secondary structure): 24 h; for change of random conformation / change of β-sheet content: time 0
Method: as §1, §2, §3

[4] = Tan et al., 1993, cited from earlier work
[5] = tested on: circadian disorders due to jet lag; details: oral, 0.25-10 mg; Arendt et al., 1987; cited from earlier work
calmodulin = details: Benitez-King et al., 1993; cited from earlier work
[6] = tested on: cultured neuroblastoma cells; details: cytotoxic fragment of amyloid β-protein; Pappolla et al., 1997; cited from earlier work
[7] = cited from earlier work
Aβ1-42 [8] = target: T1, Aβ1-42; assay: Electron microscopy of Aβ1-42 amyloid fibril formation; assay type: biochemical
Method: The formation of amyloid fibrils was monitored at 0, 2, and 6 h.

Aβ1-40 [9] = target: T2, Aβ1-40; assay: 1H NMR titration of Aβ1-40 with melatonin (binding)
Method: The solution conditions for the NMR and CD studies were similar, except that deuterated water (D2 O) in phosphate buffer was used in the NMR study. All ^1 H NMR spectra were obtained at 600 MHz using a Varian UnityPlus-600 spectrometer, and the data were processed using the FELIX program (version 95.0, Biosym, Inc.). The NMR solutions were prepared in D2 O (0.6 ml) with sodium phosphate buffer (5 mM, pH 7.5), perdeuterated Na2 EDTA (0.5 mM), NaN3 (0.05 mM), and 3-(trimethylsilyl) propionate-2,2,3,3-d4 (0.05 mM), the last of which serves as a internal chemical shift reference at 0 ppm. The NMR measurements were performed at 10° C. and the residual proton absorption of D2 O was suppressed by low power irradiation during the recycle delay. For all spectra, 128 scans were required with a total recycle delay of 4.2 s, which included an acquisition time and recycle delay of 2.2 and 2.0 s, respectively. The digital resolution of the acquired data was 0.24 Hz/pt, which was reduced to 0.12 Hz/pt by zero-filling the data once before processing. To further improve the resolution, before Fourier transformation spectra were multiplied by a Lorentzian-to-Gaussian weighting factor. This experiment was duplicated on two different days.

[10] = tested on: intrinsic cellular antioxidant defenses; details: Huerto-Delgadillo et al., 1994; cited from earlier work
microtubular components = details: Benitez-King et al., 1993; cited from earlier work
[11] = Aβ1-40, incubated for up to 48 h

CC(=O)NCCc1c[nH]c2ccc(O)cc12 [NAT, 5-hydroxy-N-acetyl-tryptamine]
structural changes (secondary structure) (Aβ1-42 [1]): not elicited | Aβ1-40 fibril formation (Aβ1-40 [2]; [11]): Well formed amyloid fibrils are easily recognized; also recorded: fibrils were abundant and easily identifiable | structural changes (secondary structure) (Aβ1-40 [3]): no structural changes | change of random conformation (Aβ1-40 [3]): This effect was not observed | change of β-sheet content (Aβ1-40 [3]): This effect was not observed

CC(C)(C)[N+]([O-])=Cc1ccccc1 [PBN, N-t-butyl-α-phenylnitrone]
structural changes (secondary structure) (Aβ1-42 [1]): not elicited | Aβ1-40 fibril formation (Aβ1-40 [2]; [11]): Well formed amyloid fibrils are easily recognized; also recorded: fibrils were abundant and easily identifiable | Aβ1-40 fibril formation (Aβ1-40 [2]; PBN 10, 100, and 200 μM, 48 h): Fibrils were abundant in all these tubes | structural changes (secondary structure) (Aβ1-40 [3]): only small effects | change of random conformation (Aβ1-40 [3]): This effect was not observed | change of β-sheet content (Aβ1-40 [3]): This effect was not observed

COc1ccc2[nH]cc(CCNC(C)=O)c2c1 [melatonin, N-[2-(5-methoxy-1H-indol-3-yl)ethyl] acetamide]
crossing of the blood-brain barrier [4]: passes easily across the blood-brain barrier; also recorded: crosses the blood-brain barrier with ease | crossing of the blood-brain barrier ([4]; listed as Melatonin): rapidly crosses the blood brain barrier | treatment of circadian disorders due to jet lag [5]: used successfully to treat circadian disorders due to jet lag | interaction with calmodulin (calmodulin): interacts with calmodulin | prevention of cell death [6]: effective in preventing death of cultured neuroblastoma cells | prevention of intracellular Ca^+2 increases [6]: effective in preventing | prevention of oxidative damage [6]: effective in preventing | lipid solubility [7]: lipid soluble | Aβ1-42 fibril formation (Aβ1-42 [8]; 250 μM Aβ1-42, 2 and 6 h): only amorphous material | Aβ1-42 fibril formation (Aβ1-42 [8]; 6 hrs., melatonin 100 μm (so in the source)): Well formed amyloid fibrils are easily recognized in FIG. 3A, but not in FIG. 3B | inhibition of Aβ1-42 fibril formation (Aβ1-42 [8]; melatonin 100 nM, 1 μM, 10 μM, 100 μM, and 200 μM): effective to inhibit fibril formation | site of binding on Aβ (Aβ1-40 [9]; NMR shifts with varied melatonin concentrations): not localized to a particular His site on Aβ | exchange regime of binding (Aβ1-40 [9]; no line broadening or separate peaks for bound and free states): fast exchange limit | amount of β-sheet structures (Aβ1-42 [1]; 4 h of incubation): 59% | amount of β-sheet structures (Aβ1-42 [1]; time 0): 65% | activity of intrinsic cellular antioxidant defenses [10]: increase the activity | interaction with microtubular components (microtubular components): interacts | concentration of melatonin inhibiting fibril formation in all tubes (Aβ1-40 [2]; 250 μM Aβ1-40, 48 h): above 10 μM | Aβ1-40 fibril formation (Aβ1-40 [2]; 250 μM Aβ1-40 plus 100 μM melatonin): only amorphous material | Aβ1-40 fibril formation (Aβ1-40 [2]; [11]): Fibrils were not formed; also recorded: no fibrils were detected | change of random conformation (Aβ1-40 [3]): immediate increase | change of β-sheet content (Aβ1-40 [3]): markedly diminished | β-sheet content (Aβ1-40 [3]; Aβ1-40 250 μM + melatonin 100 μM, 24 h of incubation): 24%
